pIC50: −log10 of the molar value.
Target: recombinant human LRRK2 (catalytic domain only [amino acids 970-2527], GST-tagged) (Homo sapiens (Human), UniProt Q5S007)
Experiment: LRRK2 Enzymatic Assay
Type: biochemical
Details: LRRKtide substrate, [32P]-ATP
Procedure, shortened: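 Radiometric P81 filter-binding read-out of [32P]-ATP transfer to LRRKtide (20 μM) by 30 nM GST-LRRK2 970-2527, 2 h at room temperature after 20 min compound preincubation (10 μM–0.5 nM, 1% DMSO). IC50 derived from % remaining activity versus DMSO.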

Chain of recombinant human LRRK2 (catalytic domain only [amino acids 970-2527], GST-tagged) (Q5S007 970-2527): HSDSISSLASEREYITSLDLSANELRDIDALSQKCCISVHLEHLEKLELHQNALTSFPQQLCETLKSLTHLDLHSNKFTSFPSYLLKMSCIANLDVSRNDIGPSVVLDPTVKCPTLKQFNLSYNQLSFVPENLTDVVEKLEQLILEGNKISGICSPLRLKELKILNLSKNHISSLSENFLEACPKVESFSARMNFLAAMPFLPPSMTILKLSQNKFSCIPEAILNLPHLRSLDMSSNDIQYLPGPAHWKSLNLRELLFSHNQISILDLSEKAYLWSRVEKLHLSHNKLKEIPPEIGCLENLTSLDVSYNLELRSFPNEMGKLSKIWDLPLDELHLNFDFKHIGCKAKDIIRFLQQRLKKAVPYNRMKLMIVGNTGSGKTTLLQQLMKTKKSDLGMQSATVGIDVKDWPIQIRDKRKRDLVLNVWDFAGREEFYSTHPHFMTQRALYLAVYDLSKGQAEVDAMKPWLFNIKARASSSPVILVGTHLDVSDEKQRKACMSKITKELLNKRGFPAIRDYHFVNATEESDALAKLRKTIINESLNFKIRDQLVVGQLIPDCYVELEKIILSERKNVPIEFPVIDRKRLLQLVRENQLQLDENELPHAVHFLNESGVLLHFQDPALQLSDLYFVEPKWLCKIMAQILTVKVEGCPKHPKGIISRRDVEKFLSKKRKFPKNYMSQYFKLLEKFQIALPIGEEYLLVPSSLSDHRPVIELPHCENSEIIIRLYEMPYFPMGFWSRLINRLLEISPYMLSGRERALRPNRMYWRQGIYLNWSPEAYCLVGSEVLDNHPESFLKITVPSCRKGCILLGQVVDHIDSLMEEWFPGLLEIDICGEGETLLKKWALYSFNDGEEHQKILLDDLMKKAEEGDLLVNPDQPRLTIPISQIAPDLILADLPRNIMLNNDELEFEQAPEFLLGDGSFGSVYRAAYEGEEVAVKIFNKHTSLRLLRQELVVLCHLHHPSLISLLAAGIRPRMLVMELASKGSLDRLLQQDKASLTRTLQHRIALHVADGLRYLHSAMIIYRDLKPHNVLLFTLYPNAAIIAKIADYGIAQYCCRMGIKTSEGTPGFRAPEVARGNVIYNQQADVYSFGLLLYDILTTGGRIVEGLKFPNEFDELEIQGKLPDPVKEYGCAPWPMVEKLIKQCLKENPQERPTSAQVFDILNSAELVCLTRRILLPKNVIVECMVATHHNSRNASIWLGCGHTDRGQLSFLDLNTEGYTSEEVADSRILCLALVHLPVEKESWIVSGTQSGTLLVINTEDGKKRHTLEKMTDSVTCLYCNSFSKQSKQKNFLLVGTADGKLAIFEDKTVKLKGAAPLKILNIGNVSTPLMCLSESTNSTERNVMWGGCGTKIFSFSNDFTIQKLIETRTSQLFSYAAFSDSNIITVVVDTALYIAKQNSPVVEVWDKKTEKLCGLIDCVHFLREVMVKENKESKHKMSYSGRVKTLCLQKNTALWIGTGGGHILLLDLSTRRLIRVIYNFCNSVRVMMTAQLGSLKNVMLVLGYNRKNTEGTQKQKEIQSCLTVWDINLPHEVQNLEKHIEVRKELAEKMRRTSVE

SMILES	pIC50
Cc1nn(C(C)C)cc1Nc1ncc(F)c(OC[C@H]2CC[C@H](O)CC2)n1 [Example 230, (1R,4R)-4-(((5-fluoro-2-((1-isopropyl-3-methyl-1H-pyrazol-4-yl)amino)pyrimidin-4-yl)oxy)methyl)cyclohexan-1-ol]	6.70 to 7.30
Cc1nn(C2CC2)cc1Nc1ncc(F)c(OC[C@H]2CC[C@H](O)CC2)n1 [Example 231, (1R,4R)-4-(((2-((1-cyclopropyl-3-methyl-1H-pyrazol-4-yl)amino)-5-fluoropyrimidin-4-yl)oxy)methyl)cyclohexan-1-ol]	6.70 to 7.30
Cc1c(Nc2ncc(F)c(OC[C@H]3CC[C@H](O)CC3)n2)cnn1C(C)(C)C#N [Example 234, 2-(4-((5-fluoro-4-(((1R,4R)-4-hydroxycyclohexyl)methoxy)pyrimidin-2-yl)amino)-5-methyl-1H-pyrazol-1-yl)-2-methylpropanenitrile]	> 7.30
O[C@H]1CC[C@H](COc2nc(Nc3cnn(C4CCOCC4)c3C3CC3)ncc2F)CC1 [Example 236, (1R,4R)-4-(((2-((5-cyclopropyl-1-(tetrahydro-2H-pyran-4-yl)-1H-pyrazol-4-yl)amino)-5-fluoropyrimidin-4-yl)oxy)methyl)cyclohexan-1-ol]	> 7.30
CC(C)n1cc(Nc2ncc(F)c(OC[C@H]3CC[C@H](O)CC3)n2)c(Cl)n1 [Example 238, (1R,4R)-4-(((2-((3-chloro-1-isopropyl-1H-pyrazol-4-yl)amino)-5-fluoropyrimidin-4-yl)oxy)methyl)cyclohexan-1-ol]	6.40 to 6.70
O[C@H]1CC[C@H](COc2nc(Nc3cn(C4CC4)nc3Cl)ncc2F)CC1 [Example 239, (1R,4R)-4-(((2-((3-chloro-1-cyclopropyl-1H-pyrazol-4-yl)amino)-5-fluoropyrimidin-4-yl)oxy)methyl)cyclohexan-1-ol]	6.40 to 6.70
OCCn1ncc(Nc2ncc(F)c(OC[C@H]3CC[C@H](O)CC3)n2)c1Cl [Example 240, (1R,4R)-4-(((2-((5-chloro-1-(2-hydroxyethyl)-1H-pyrazol-4-yl)amino)-5-fluoropyrimidin-4-yl)oxy)methyl)cyclohexan-1-ol]	6.70 to 7.30
COCCn1ncc(Nc2ncc(F)c(OC[C@H]3CC[C@H](O)CC3)n2)c1Cl [Example 241, (1R,4R)-4-(((2-((5-chloro-1-(2-methoxyethyl)-1H-pyrazol-4-yl)amino)-5-fluoropyrimidin-4-yl)oxy)methyl)cyclohexan-1-ol]	6.70 to 7.30
O[C@H]1CC[C@H](COc2nc(Nc3cnn(C4CCOCC4)c3Cl)ncc2F)CC1 [Example 242, (1R,4R)-4-(((2-((5-chloro-1-(tetrahydro-2H-pyran-4-yl)-1H-pyrazol-4-yl)amino)-5-fluoropyrimidin-4-yl)oxy)methyl)cyclohexan-1-ol]	> 7.30
COc1nn(C)cc1Nc1ncc(F)c(OC[C@H]2CC[C@H](O)CC2)n1 [Example 243, (1R,4R)-4-(((5-fluoro-2-((3-methoxy-1-methyl-1H-pyrazol-4-yl)amino)pyrimidin-4-yl)oxy)methyl)cyclohexan-1-ol]	6.40 to 6.70
COc1nn(C(C)C)cc1Nc1ncc(F)c(OC[C@H]2CC[C@H](O)CC2)n1 [Example 244, (1R,4R)-4-(((5-fluoro-2-((1-isopropyl-3-methoxy-1H-pyrazol-4-yl)amino)pyrimidin-4-yl)oxy)methyl)cyclohexan-1-ol]	< 6.40
COc1nn(C2CC2)cc1Nc1ncc(F)c(OC[C@H]2CC[C@H](O)CC2)n1 [Example 245, (1R,4R)-4-(((2-((1-cyclopropyl-3-methoxy-1H-pyrazol-4-yl)amino)-5-fluoropyrimidin-4-yl)oxy)methyl)cyclohexan-1-ol]	6.40 to 6.70
O[C@H]1CC[C@H](COc2nc(Nc3ccc(N4CCOCC4)cc3)nc(Cl)c2F)CC1 [Example 246, (1R,4R)-4-(((6-chloro-5-fluoro-2-((4-morpholinophenyl)amino)pyrimidin-4-yl)oxy)methyl)cyclohexan-1-ol]	< 6.40
C[C@@H]1CN(c2ccc(Nc3ncc(F)c(OC[C@@H]4CCC[C@@H](O)C4)n3)cc2)C[C@H](C)O1 [Example 249, (1R,3R)-3-(((2-((4-((2S,6R)-2,6-dimethylmorpholino)phenyl)amino)-5-fluoropyrimidin-4-yl)oxy)methyl)cyclohexan-1-ol]	> 7.30
Cc1nn(C(C)(C)C#N)cc1Nc1ncc(F)c(OC[C@@H]2CCC[C@@H](O)C2)n1 [Example 250, 2-(4-((5-fluoro-4-(((1R,3R)-3-hydroxycyclohexyl)methoxy)pyrimidin-2-yl)amino)-3-methyl-1H-pyrazol-1-yl)-2-methylpropanenitrile]	> 7.30
C[C@@H]1CN(c2ccc(Nc3ncc(F)c(OCC4CCC(C)(O)CC4)n3)cc2)C[C@H](C)O1 (stereo partly drawn) [Example 252, 4-(((2-((4-((2S,6R)-2,6-dimethylmorpholino)phenyl)amino)-5-fluoropyrimidin-4-yl)oxy)methyl)-1-methylcyclohexan-1-ol]	> 7.30
CC(C)(O)[C@H]1CC[C@H](COc2nc(Nc3ccc(N4C5CCC4COC5)cc3)ncc2F)CC1 [Example 254, 2-((1S,4S)-4-(((2-((4-(3-oxa-8-azabicyclo[3.2.1]octan-8-yl)phenyl)amino)-5-fluoropyrimidin-4-yl)oxy)methyl)cyclohexyl)propan-2-ol]	6.70 to 7.30
CC(C)n1cc(Nc2ncc(F)c(OCC34CCC(O)(CC3)CC4)n2)cn1 [Example 256, 4-(((5-fluoro-2-((1-isopropyl-1H-pyrazol-4-yl)amino)pyrimidin-4-yl)oxy)methyl)bicyclo[2.2.2]octan-1-ol]	> 7.30
O[C@@H]1CC[C@H](COc2nc(Nc3ccc(N4CCOCC4)cc3)ncc2F)C[C@H]1F [Example 258, (1R,2R,4S)-2-fluoro-4-(((5-fluoro-2-((4-morpholinophenyl)amino)pyrimidin-4-yl)oxy)methyl)cyclohexan-1-ol]	6.70 to 7.30
OC1(C(F)(F)F)CCC(COc2nc(Nc3ccc(N4CCOCC4)cc3)ncc2F)CC1 (stereo not drawn) [Example 260, 4-(((5-fluoro-2-((4-morpholinophenyl)amino)pyrimidin-4-yl)oxy)methyl)-1-(trifluoromethyl)cyclohexan-1-ol]	6.70 to 7.30
C[C@@H]1CN(c2ccc(Nc3ncc(F)c(OCC4CCC(O)(C(F)(F)F)CC4)n3)cc2)C[C@H](C)O1 (stereo partly drawn) [Example 261, 4-(((2-((4-((2S,6R)-2,6-dimethylmorpholino)phenyl)amino)-5-fluoropyrimidin-4-yl)oxy)methyl)-1-(trifluoromethyl)cyclohexan-1-ol]	6.70 to 7.30
Cc1nn(C(C)(C)C#N)cc1Nc1ncc(F)c(OCC2CCC(O)(C(F)(F)F)CC2)n1 (stereo not drawn) [Example 262, 2-(4-((5-fluoro-4-((4-hydroxy-4-(trifluoromethyl)cyclohexyl)methoxy)pyrimidin-2-yl)amino)-3-methyl-1H-pyrazol-1-yl)-2-methylpropanenitrile]	6.70 to 7.30

The next lines start with the values.

pIC50	SMILES
6.70 to 7.30	Cc1nn(C(F)F)cc1Nc1ncc(F)c(OC[C@H]2CC[C@H](O)CC2)n1 [Example 232, (1R,4R)-4-(((2-((1-(difluoromethyl)-3-methyl-1H-pyrazol-4-yl)amino)-5-fluoropyrimidin-4-yl)oxy)methyl)cyclohexan-1-ol]
> 7.30	CCc1nn(C)cc1Nc1ncc(F)c(OC[C@H]2CC[C@H](O)CC2)n1 [Example 233, (1R,4R)-4-(((2-((3-ethyl-1-methyl-1H-pyrazol-4-yl)amino)-5-fluoropyrimidin-4-yl)oxy)methyl)cyclohexan-1-ol]
6.70 to 7.30	Cc1c(Nc2ncc(F)c(OC[C@H]3CC[C@H](O)CC3)n2)cnn1C(F)F [Example 235, (1R,4R)-4-(((2-((1-(difluoromethyl)-5-methyl-1H-pyrazol-4-yl)amino)-5-fluoropyrimidin-4-yl)oxy)methyl)cyclohexan-1-ol]
6.70 to 7.30	Cn1cc(Nc2ncc(F)c(OC[C@H]3CC[C@H](O)CC3)n2)c(Cl)n1 [Example 237, (1R,4R)-4-(((2-((3-chloro-1-methyl-1H-pyrazol-4-yl)amino)-5-fluoropyrimidin-4-yl)oxy)methyl)cyclohexan-1-ol]
< 6.40	C[C@@H]1CN(c2ccc(Nc3nc(Cl)c(F)c(OC[C@H]4CC[C@H](O)CC4)n3)cc2)C[C@H](C)O1 [Example 247, (1R,4R)-4-(((6-chloro-2-((4-((2S,6R)-2,6-dimethylmorpholino)phenyl)amino)-5-fluoropyrimidin-4-yl)oxy)methyl)cyclohexan-1-ol]
< 6.40	Cc1nn(C(C)(C)C#N)cc1Nc1nc(Cl)c(F)c(OC[C@H]2CC[C@H](O)CC2)n1 [Example 248, 2-(4-((4-chloro-5-fluoro-6-(((1R,4R)-4-hydroxycyclohexyl)methoxy)pyrimidin-2-yl)amino)-3-methyl-1H-pyrazol-1-yl)-2-methylpropanenitrile]
6.70 to 7.30	CC1(O)CCC(COc2nc(Nc3ccc(N4CCOCC4)cc3)ncc2F)CC1 (stereo not drawn) [Example 251, 4-(((5-fluoro-2-((4-morpholinophenyl)amino)pyrimidin-4-yl)oxy)methyl)-1-methylcyclohexan-1-ol]
> 7.30	Cc1nn(C(C)(C)C#N)cc1Nc1ncc(F)c(OCC2CCC(C)(O)CC2)n1 (stereo not drawn) [Example 253, 2-(4-((5-fluoro-4-((4-hydroxy-4-methylcyclohexyl)methoxy)pyrimidin-2-yl)amino)-3-methyl-1H-pyrazol-1-yl)-2-methylpropanenitrile]
6.70 to 7.30	CC(C)n1cc(Nc2ncc(F)c(OC[C@H]3CC[C@H](C(C)(C)O)CC3)n2)cn1 [Example 255, 2-((1R,4R)-4-(((5-fluoro-2-((1-isopropyl-1H-pyrazol-4-yl)amino)pyrimidin-4-yl)oxy)methyl)cyclohexyl)propan-2-ol]
6.70 to 7.30	Cc1nn(C(C)(C)C#N)cc1Nc1ncc(F)c(OCC23CCC(O)(CC2)CC3)n1 [Example 257, 2-(4-((5-fluoro-4-((4-hydroxybicyclo[2.2.2]octan-1-yl)methoxy)pyrimidin-2-yl)amino)-3-methyl-1H-pyrazol-1-yl)-2-methylpropanenitrile]
> 7.30	Cc1nn(C(C)(C)C#N)cc1Nc1ncc(F)c(OC[C@H]2CC[C@@H](O)[C@H](F)C2)n1 [Example 259]
